Results on four compounds are retold here after patent publication US20060040911A1, “Method for preventing and/or treating the cardiovascular and hepatic diseases induced by hyperlipidemia which comprises administered an effective amount of bioflavonoids extract derived from fructus crataegus (lipid metabolism and fructus crataegus)” (priority 2003, published 2006).

The structures appear in SMILES notation.

Series [1] deals with thoracic aorta of rabbits fed 1% cholesterol diet. Description: Analysis for fatty streak deposition in thoracic aorta. In kind it is in vivo, rabbit. Particulars: microscopic pictures, 1% cholesterol plus 0.15% bioflavonoid or 1.5 mg/kg simvastatin, control: thick layer. As for the experimental part:
The chest wall of each rabbit (sacrificed in Step B) was incised, a portion of thoracic aorta from 1 cm site above aortic valve downward for 5 cm was cut out. The surrounding fatty tissues were removed, the aorta was incised longitudinally and pinned to a dish. The moist aorta was then photographed, and staining of fatty streak was carried out with the method described by Esper, E. et al. (Journal of Lab. Clinical Medicine; 121, pp 103-110(1993)) as follows.
The opened portion of aortas were pinned to a wooden tongue depressor, washed three times for 2 minutes with anhydrous propylene glycol and stained for 30 minutes with saturated solution of Oil Red O dissolved in propylene glycol. Then the aortas were washed twice for 3 minutes with 85% propylene glycol, to remove remaining staining solution by washing with normal saline solution. The aortas were photographed, and the photographs were traced with an image analyzer (LEICA, Q-600, Germany), and the area of stained portion were fatty streak region, its proportion in percentile (%) to the total aorta area were calculated.

In series [2] the test system is liver of rabbits fed 1% cholesterol diet. Description: Fatty degeneration in the liver of the rabbits. In kind it is in vivo, rabbit. Conditions: 1% cholesterol plus 0.15% bioflavonoid or 1.5 mg/kg Simvastatin. The text has this:
According to the report of Fogt F. and Nanji A., (Toxicology and Applied Pharmacology; 136, pp 87-93, 1996) and Keegan A. et al., (Journal of Hepatology; 23, pp 591-600, 1995). […]

Another series concerns the target T1, 3-HMG-CoA reductase (Oryctolagus cuniculus, UniProt Q29512).
T1 construct: ultracentrifuged at 100,000 times gram for 60 minutes and again for another 60 minutes to obtain microsomal precipitates; from tissue; host or cells: rabbit liver microsomes
T1 sequence (Q29512 1-888): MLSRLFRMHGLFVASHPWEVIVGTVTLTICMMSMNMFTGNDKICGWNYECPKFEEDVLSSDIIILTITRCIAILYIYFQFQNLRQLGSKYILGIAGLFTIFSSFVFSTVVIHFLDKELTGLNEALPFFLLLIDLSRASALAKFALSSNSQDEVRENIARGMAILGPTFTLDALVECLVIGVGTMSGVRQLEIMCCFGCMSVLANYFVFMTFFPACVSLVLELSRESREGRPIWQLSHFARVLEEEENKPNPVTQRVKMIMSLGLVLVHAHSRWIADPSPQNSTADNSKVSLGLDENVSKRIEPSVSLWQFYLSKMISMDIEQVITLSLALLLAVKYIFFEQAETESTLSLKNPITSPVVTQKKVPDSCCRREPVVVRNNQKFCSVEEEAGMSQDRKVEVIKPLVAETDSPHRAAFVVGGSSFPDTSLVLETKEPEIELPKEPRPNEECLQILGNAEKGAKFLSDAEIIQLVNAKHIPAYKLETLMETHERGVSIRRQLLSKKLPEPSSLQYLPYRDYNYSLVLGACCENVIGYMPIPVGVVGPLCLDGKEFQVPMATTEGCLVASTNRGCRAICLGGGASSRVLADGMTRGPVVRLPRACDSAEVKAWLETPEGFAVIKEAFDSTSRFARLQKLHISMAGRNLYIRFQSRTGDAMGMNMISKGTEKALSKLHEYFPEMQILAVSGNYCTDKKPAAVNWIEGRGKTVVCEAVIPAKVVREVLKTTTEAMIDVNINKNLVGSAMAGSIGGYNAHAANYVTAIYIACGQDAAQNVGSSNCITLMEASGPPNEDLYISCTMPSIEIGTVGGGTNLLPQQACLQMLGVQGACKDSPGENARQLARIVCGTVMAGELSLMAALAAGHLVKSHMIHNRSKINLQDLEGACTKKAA
Description: Activity of 3-HMG-CoA reductase in liver microsomes (modified Hulcher's method). It is filed as biochemical, rabbit. Conditions: liver microsomes of rabbits fed 8 weeks 1% cholesterol plus 0.15% bioflavonoid; control group 0%.

The next series has as its system ICR female mice. Conditions: single oral dose (rutin 1500, quercetin 125, kaempherol 1000, vitexin 500 mg/kg), observed 30 days.

Description for 3-HMG-CoA reductase: The activity of 3-HMG-CoA reductase was determined by modified Hulcher's method (Journal of lipid research; 14, 625-641, 1973), in which the concentration of Co-A will be produced when 3-HMG-CoA is reduced to mevalonate salt by the action of the 3-HMG-CoA reductase; then the reductase was determined by spectroscopy and the activity of the 3-HMG-CoA reductase was calculated.
Liver tissues from each group of rabbits from Example 4 Step B were obtained, 3 gram of tissue was washed with 100 ml of cold normal saline (1 N NaCl) and 100 ml of cold buffer solution-A (0.1M triethanolamine HCl/10 mM EDTA/10 mM dithiothreitol (DTT)). A cold buffered solution-A and liver tissue ratio was 2 ml per each gram. Then the mixture was minced and homogenized with a homogenizer, the homogenate was centrifuged at 20,000 times gram for 15 minutes, the supernatant was ultracentrifuged at 100,000 times gram for 60 minutes and again for another 60 minutes to obtain microsomal precipitates. The precipitates were washed with cold buffer solution-A and kept at minus 70 degree C. till ready for analysis.
There were 3 reactive substrates used in this assay (a) buffer solution B; 0.1 M triethanolamine HCl/10 mM EDTA with ph 7.4 (b) 3-HMG-CoA solution; 150 mu.moles/culture medium, (c) NADPH solution; 2 mu.moles/culture medium.
The microsomal suspension was then mixed with reaction substrates in a centrifuge tube and allowed to react at 37 degree C. for 30 minutes, then added with 20 mu 1 of 10 mM sodium arsenous solution and allowed to react for 1 minute, and then added with 100 µl of citrate buffer solution (2M sodium citrate/3 M sodium tungstate, with Ph of 3.5) at 37 degree C. for 10 minutes, then centrifuged at 30,000 times gram for 15 minutes to remove protein. […]
The mixture was then added with 20 µl of DTNB buffer solution (3 mM DTNB/0.1M triethanolamine/10 mM EDTA with PH of 7.4). The absorbance of this mixture was determined at wave length of 412 nm to calculate the amount of CoA that is the activity of 3-HMG-CoA reductase.

Turning to `O=c1c(O)c(-c2ccc(O)c(O)c2)oc2cc(O)cc(O)c12` [Quercetin, 3,5,7,3′,4′ penta-hydroxy flavone], the “macrophage lipid cell complex in the aorta walls (FIGS. IB-IF)” value (shortened to “macrophage lipid cell complex”) in series [1] is “no or a very thin layer of macrophage lipid cell complex”. In addition, the “microscopic features of the liver (FIGS. 2B-2F)” value (“microscopic features” for short) in series [2] was “almost all of the liver cells are normal without containing fat particles”. Also, at 3-HMG-CoA reductase, the “Inhibition on the activity of 3-HMG-CoA reductase in percentage (%)” value worked out at 32%. Also, in the series with ICR female mice, the survival entry was “alive at day 31”.
As to `O=c1cc(-c2ccc(O)cc2)oc2c(C3O[C@H](CO)[C@@H](O)[C@H](O)[C@H]3O)c(O)cc(O)c12` (stereo partly drawn) [Vitexin, 8-D-glucosyl-4′,5,7 trihydroxy-flavone], the “macrophage lipid cell complex” value in series [1] is “no or a very thin layer of macrophage lipid cell complex”. In addition, the “microscopic features” value in series [2] is on record as “almost all of the liver cells are normal without containing fat particles”. On 3-HMG-CoA reductase, the “Inhibition on the activity of 3-HMG-CoA reductase in percentage (%)” value was determined as 30%. In the series with ICR female mice, the body weight result was “no body weight loss” and the survival entry is recorded as “alive at day 31”.
Turning to `O=c1c(O)c(-c2ccc(O)cc2)oc2cc(O)cc(O)c12` [Kaempherol, 3,5,7,4′ tetra-hydroxy-flavone], the “macrophage lipid cell complex” value in series [1] is “no or a very thin layer of macrophage lipid cell complex”. In series [2], the “microscopic features” value is recorded as “almost all of the liver cells are normal without containing fat particles”. In addition, the survival entry in the series on ICR female mice is on record as “alive at day 31”.
For the compound `C[C@@H]1O[C@@H](OC[C@H]2O[C@@H](Oc3c(-c4ccc(O)c(O)c4)oc4cc(O)cc(O)c4c3=O)[C@H](O)[C@@H](O)[C@@H]2O)[C@H](O)[C@H](O)[C@H]1O` [Rutin, quercetin-3-rutinoside], the “Inhibition on the activity of 3-HMG-CoA reductase in percentage (%)” value at 3-HMG-CoA reductase amounted to 45%. In addition, in the series on ICR female mice, the body weight result is given as “no body weight loss” and the survival entry is “alive at day 31”.
